The values that follow come from EP4722195A1, “PH-SENSITIVE CATIONIC LIPID AND LIPID NANOPARTICLES” (National University Corporation Hokkaido University, priority 2023, dated 2024).

Data set [1] is described as follows: Apparent pKa of lipid nanoparticles (TNS).
Protocol: The apparent pKa of the lipid nanoparticles was measured using p-toluenesulfonic acid (TNS). First, TNS (final concentration: 0.75 µM) and lipid nanoparticles (final concentration: 30 µM) were mixed in a buffer (200 mL) adjusted to each pH (pH 3.5 to 9.5). As the buffer, 20 mM citrate buffer, 20 mM sodium phosphate buffer, or 20 mM Tris-HCl buffer containing 130 mM NaCl was used. The fluorescence intensity of the prepared mixture was measured using a fluorescence spectrophotometer (Varioskan Lux, manufactured by Thermo Fisher Scientific) with the settings of λex=321 nm and λem=447 nm. Among the measured values, the highest value and the lowest value were set as 100% and 0% ionization degrees, respectively, and the pH showing a 50% ionization degree was calculated as the apparent pKa. The content ratio (%) of cationically charged pH-sensitive cationic lipid was calculated using the Henderson-Hasselbalch equation.
The nature of data set [2]: Average particle size and polydispersity index of lipid nanoparticles (dynamic light scattering). The format is physicochemical. The method, then: (§1) The average particle size (number average value), ζ-average particle size, and polydispersity index (PdI) of the lipid nanoparticles in PBS(-) (pH 7.4), and the zeta potential in 10 mM HEPES buffer (pH 7.4) were measured using an analyzer "Zetasizer Nano ZS ZEN3600" (manufactured by Malvern) utilizing dynamic light scattering.

The nature of data set [3]: Encapsulation rate of lipid nanoparticles (Ribogreen). Format: physicochemical. As for the experimental part: The encapsulation rate of the lipid nanoparticles was determined by measuring the amount of encapsulated nucleic acid (mRNA) using Ribogreen (manufactured by Life Technologies), which is an RNA intercalator. The mRNA amount was quantified based on a calibration curve prepared from a series of diluted mRNA solutions at known concentrations.
Specifically, 10 mM HEPES buffer (pH 7.4), 10 w/v% Triton X-100, and Ribogreen were mixed at 978.8 µL, 20 µL, and 1.25 µL per 10 wells, respectively, to obtain a Triton(+) buffer. A Triton(-) buffer was obtained in replacing Triton X-100 with 10 mM HEPES buffer (pH 7.4). 100 µL/well of the sample was added to a black 96-well plate for fluorescence measurement, and 100 µL/well of Triton(+) buffer or Triton(-) buffer was added. After the plate was gently shaken on a shaking incubator (SI-300, manufactured by AS ONE) (700 rpm, 30 seconds), the fluorescence intensity of each well was measured using a microplate reader (VARIOSKAN LUX, manufactured by Thermo Fisher Scientific) (wavelength Ex/Em=500 nm/525 nm), and the nucleic acid encapsulation rate (%) was calculated.

Data set [4] in a line: Zeta potential of lipid nanoparticles. The format is physicochemical. The method, then: as §1
The test system of another data set is liver. As to the kind of experiment: EGFP expression in liver tissue sections of mice administered EGFP mRNA-loaded lipid nanoparticles (confocal microscopy). The format is in vivo, Balb/c mice. Particulars: Example 27, Fig. 6; EGFP mRNA-loaded lipid nanoparticles TxT/DSPC/chol/PEG-DMG=50/3/47/1.5 (mol%); 24 hours post-administration. As for the experimental part:
Subsequently, each EGFP mRNA-loaded lipid nanoparticle was administered to Balb/c mice at a dose of 0.2 mg mRNA/kg. At 23 hours and 50 minutes post-administration, fluorescently labeled lectin (DyLight-649 Lycopersicon (Tomato) Lectin) was intravenously injected via the tail vein at 40 µg/mouse to fluorescently label vascular endothelial cells. At 24 hours after administration of the lipid nanoparticles, the mice were euthanized, and their livers were collected to prepare tissue sections. For nuclear staining, the tissue sections were immersed in a nuclear staining solution (1 µg/mL Hoechst 33342 dissolved in PBS(-)), cooled on ice, and incubated for at least 30 minutes in the dark. The stained tissue sections were then observed using a confocal laser scanning microscope. Subsequently, in the same manner as Example 26, each EGFP mRNA-loaded lipid nanoparticle was administered to Balb/c mice. At 23 hours and 50 minutes post-administration, fluorescently labeled lectin was administered. At 24 hours after administration of the lipid nanoparticles, the mice were euthanized, and their livers were collected to prepare tissue sections. Each tissue section was observed using a confocal laser scanning microscope. In the figure, the upper panels show fluorescence images of EGFP, and the lower panels show fluorescence images of vascular endothelial cells (fluorescently labeled lectin).

The mark [5] stands for this setting: Table 4, Fluc mRNA-loaded lipid nanoparticles, TxT-5-5A14/DSPC/chol/PEG-DMG=50/3/47/1.5, SM-102, ALC-0315 or MC3/DSPC/chol/PEG-DMG=50/10/40/1.5 (mol%).
Where [6] appears, read: Table 7, hEPO mRNA-loaded lipid nanoparticles, TxT/DSPC/chol/PEG-DMG=50/3/47/1.5, SM-102/DSPC/chol/PEG-DMG=50/10/40/1.5 (mol%).
[7] abbreviates: Table 3, Fluc mRNA-loaded lipid nanoparticles, TxT/DSPC/chol/PEG-DMG=50/3/47/1.5 (mol%).
The mark [8] stands for this setting: Table 5, EGFP mRNA-loaded lipid nanoparticles, TxT/DSPC/chol/PEG-DMG=50/3/47/1.5 (mol%), total flow rate 3.0 mL/min.
Where [9] appears, read: Table 1, Fluc mRNA-loaded lipid nanoparticles, TxT/DSPC/chol/PEG-DMG=50/15/35/1.5 (mol%).

Consider `CCCCCCCCC(CCCCCC)C(=O)OCCCCCCN(CCCCO)CCCCCCOC(=O)C(CCCCCC)CCCCCCCC` (centres unmarked) [ALC-0315, reference compound], for which the pKa in data set [1] (setting [5]) came out at 6.27. Further, in data set [2] (setting [5]), the Pdl amounted to 0.13, the “number average particle size” value came out at 57.0 nm and the ζ-average particle size is on record as 86.0 nm. Moreover, in data set [3] (setting [5]), the mRNA concentration stood at 0.025 µg/µL and the mRNA encapsulation rate came to 98.4%. Further, the ζ-potential in data set [4] (setting [5]) is recorded as -2.1 mV.

On to `CCCCCCCCCCCOC(=O)CCCCCN(CCO)CCCCCCCC(=O)OC(CCCCCCCC)CCCCCCCC` [SM-102, reference compound], for which, in data set [2] (setting [5]), the Pdl stood at 0.21, the “number average particle size” value is 42.0 nm and the ζ-average particle size is given as 70.4 nm. Further, in data set [2] (setting [6]), the Pdl is given as 0.19, the “number average particle size” value is on record as 38.6 nm and the ζ-average particle size was 78.8 nm. In data set [3] (setting [5]), the mRNA concentration amounted to 0.018 µg/µL and the mRNA encapsulation rate was found to be 99.6%. In data set [3] (setting [6]), this molecule displayed a mRNA concentration of 0.015 µg/µL and a mRNA encapsulation rate of 97.5%. The ζ-potential in data set [4] (setting [5]) is on record as -11.0 mV. The ζ-potential in data set [4] (setting [6]) is 0.0 mV.

Turning to `CCCCCCCCCCN(CCCCCCCCCC)C(=O)CCC(=O)OCC(COC(=O)CCC(=O)N(CCCCCCCCCC)CCCCCCCCCC)(COC(=O)CCC(=O)N(CCCCCCCCCC)CCCCCCCCCC)NC(=O)CCN1CCCCC1` [TxT-5-4A20, 2-(((4-(didecylamino)-4-oxobutanoyl)oxy)methyl)-2-(3-(piperidin-1-yl)propanamido)propane-1,3-diyl bis(4-(didecylamino)-4-oxobutanoate)], the pKa in data set [1] (setting [7]) turned out to be 6.49. Moreover, the Pdl in data set [2] (setting [7]) and in data set [2] (setting [8]) was 0.08 throughout. Also, the figures for the “number average particle size” value in data set [2] (setting [7]) and in data set [2] (setting [8]) were 98.6 nm and 110.1 nm, respectively. For the same molecule, the results for the ζ-average particle size in data set [2] (setting [7]) and in data set [2] (setting [8]) were 136.8 nm and 140.9 nm, respectively. The mRNA concentration in data set [3] (setting [7]) is given as 0.019 µg/µL; in data set [3] (setting [8]) it was 0.021 µg/µL. Also, the mRNA encapsulation rate is reported as 98.4% in data set [3] (setting [7]) and 96.2% in data set [3] (setting [8]). The “fluorescence of EGFP in the liver tissues” value (shortened to “fluorescence of EGFP”) with liver is “not detectable”. Moreover, the ζ-potential in data set [4] (setting [7]) was -3.7 mV; in data set [4] (setting [8]) it was -7.4 mV.

On to `CCCCN(CCCC)C(=O)CCCC(=O)OCC(COC(=O)CCCC(=O)N(CCCC)CCCC)(COC(=O)CCCC(=O)N(CCCC)CCCC)NC(=O)CCN1CCCCC1` [TxT-5-5A8, 2-(((5-(dibutylamino)-5-oxopentanoyl)oxy)methyl)-2-(3-(piperidin-1-yl)propanamido)propane-1,3-diyl bis(5-(dibutylamino)-5-oxopentanoate)], for which, in data set [2] (setting [9]), the Pdl was 0.19, the “number average particle size” value was 61.6 nm and the ζ-average particle size is 92.9 nm. Further, in data set [3] (setting [9]), the mRNA concentration turned out to be 0.005 µg/µL and the mRNA encapsulation rate is 23.7%. In addition, the ζ-potential in data set [4] (setting [9]) was -5.3 mV.

`CCCCC(CC)CNC(=O)CCCC(=O)OCC(COC(=O)CCCC(=O)NCC(CC)CCCC)(COC(=O)CCCC(=O)NCC(CC)CCCC)NC(=O)CCN1CCCCC1` (stereo not drawn) [TxT-5-5A8β, 2-(((5-((2-ethylhexyl)amino)-5-oxopentanoyl)oxy)methyl)-2-(3-(piperidin-1-yl)propanamido)propane-1,3-diyl bis(5-((2-ethylhexyl)amino)-5-oxopentanoate)]: in data set [2] (setting [9]), the Pdl is reported as 0.30, the “number average particle size” value is 110.3 nm and the ζ-average particle size came to 255.9 nm. In data set [3] (setting [9]), this molecule came in with a mRNA concentration of 0.009 µg/µL and a mRNA encapsulation rate of 73.4%. In addition, the ζ-potential in data set [4] (setting [9]) was -18.0 mV.

For `CCCCCN(CCCCC)C(=O)CCCC(=O)OCC(COC(=O)CCCC(=O)N(CCCCC)CCCCC)(COC(=O)CCCC(=O)N(CCCCC)CCCCC)NC(=O)CCN1CCCCC1` [TxT-5-5A10, 2-(((5-(dipentylamino)-5-oxopentanoyl)oxy)methyl)-2-(3-(piperidin-1-yl)propanamido)propane-1,3-diyl bis(5-(dipentylamino)-5-oxopentanoate)], in data set [1] (Table 1, apparent pKa of Fluc mRNA-loaded lipid nanoparticles, TxT/DSPC/chol/PEG-DMG=50/15/35/1.5 (mol%)), the pKa amounted to 7.94. In addition, in data set [2] (setting [9]), the Pdl stood at 0.42, the “number average particle size” value came to 213.0 nm and the ζ-average particle size is reported as 426.0 nm. In data set [3] (setting [9]), this molecule showed a mRNA concentration of 0.012 µg/µL and a mRNA encapsulation rate of 56.5%. Further, the ζ-potential in data set [4] (setting [9]) is -36.4 mV.

For the molecule `CCCCCCCCC(CCCCCC)CNC(=O)CCCC(=O)OCC(COC(=O)CCCC(=O)NCC(CCCCCC)CCCCCCCC)(COC(=O)CCCC(=O)NCC(CCCCCC)CCCCCCCC)NC(=O)CCN1CCCCC1` (stereo not drawn) [TxT-5-5A16β, 2-(((5-((2-hexyldecyl)amino)-5-oxopentanoyl)oxy)methyl)-2-(3-(piperidin-1-yl)propanamido)propane-1,3-diyl bis(5-((2-hexyldecyl)amino)-5-oxopentanoate)], the pKa in data set [1] (setting [7]) is recorded as 4.90. Moreover, the Pdl worked out at 0.07 in data set [2] (setting [7]) and 0.06 in data set [2] (setting [8]). The “number average particle size” value is given as 69.3 nm in data set [2] (setting [7]) and 80.1 nm in data set [2] (setting [8]). Further, the ζ-average particle size in data set [2] (setting [7]) amounted to 89.4 nm; in data set [2] (setting [8]), 101.1 nm. For the same molecule, the results for the mRNA concentration in data set [3] (setting [7]) and in data set [3] (setting [8]) were 0.018 µg/µL and 0.016 µg/µL, respectively. The mRNA encapsulation rate in data set [3] (setting [7]) worked out at 99.2%; in data set [3] (setting [8]) it was 99.1%. Also, the “fluorescence of EGFP” value with liver is recorded as “fluorescence of EGFP was observed”. The figures for the ζ-potential in data set [4] (setting [7]) and in data set [4] (setting [8]) were -7.4 mV and -8.9 mV, respectively.

Consider `CCCCCCC(CCCCCC)COC(=O)CCCC(=O)OCC(COC(=O)CCCC(=O)OCC(CCCCCC)CCCCCC)(COC(=O)CCCC(=O)OCC(CCCCCC)CCCCCC)NC(=O)CCN1CCCCC1` [TxT-5-5E14, bis(2-hexyloctyl) O,O'-(2-(((5-((2-hexyloctyl)oxy)-5-oxopentanoyl)oxy)methyl)-2-(3-(piperidin-1-yl)propanamido)propane-1,3-diyl) diglutarate], for which, in data set [1] (setting [7]), the pKa was 5.38. Further, in data set [2] (setting [7]), the Pdl is 0.17, the “number average particle size” value came to 60.2 nm and the ζ-average particle size came out at 95.7 nm. In data set [2] (setting [8]), the Pdl worked out at 0.14, the “number average particle size” value is on record as 71.1 nm and the ζ-average particle size is reported as 103.3 nm. For the same molecule, in data set [3] (setting [7]), the mRNA concentration amounted to 0.022 µg/µL and the mRNA encapsulation rate is 98.8%. In data set [3] (setting [8]), the mRNA concentration is 0.024 µg/µL and the mRNA encapsulation rate stood at 98.3%. In addition, the “fluorescence of EGFP” value in the data set with liver is “fluorescence of EGFP was observed”. Besides, the ζ-potential in data set [4] (setting [7]) was -9.7 mV. In data set [4] (setting [8]), the ζ-potential was -11.6 mV.

As a reminder, the pKa is the pH at which an ionisable group is half protonated.
